# Reference: patent US20220274983A1, “JAK KINASE INHIBITOR AND USE THEREOF” (JIANGSU CAREPHAR PHARMACEUTICAL CO., LTD., priority 2019, published 2022)
# How the values were obtained:
# [1] = target: T1, humanether-a-go-go related gene (hERG) channels (Homo sapiens, UniProt Q12809); experiment: hERG test, patch clamp in HEK293 cells; format: cell-based; details: HEK293 cells expressing hERG, tail current
# T1 construct: expressed in transfected cells; host or cells: HEK293
# Source text: For the purpose of evaluating the risk of prolonged QT interval in ECG of the compound according to the present invention, HEK293 cells expressing humanether-a-go-go related gene (hERG) channels were used to study the effect of the compound according to the present invention on the delayed rectifier K+ current (Ikr) playing an important role in ventricular repolarization.
# The cells are maintained at −80 mV using a fully automatic patch clamp system (patch clamp PC-505B (WARNER instruments)) through a fully automatic patch clamp method, and then depolarized to 40 mV with a square wave lasting 4 s and hyperpolarized to −40 mV with a square wave lasting 2 s to obtain the hERG tail current. The maximum current induced by the second square wave was detected. After this current was stabilized, the test compound was perfused. After the reaction was stabilized, the blocking strength was calculated.
# Extracellular fluid (mM): NaCl, 137; KCl, 4; CaCl2, 1.8; MgCl2, 1; HEPES, 10; glucose 10; pH 7.4 (NaOH titration). Intracellular fluid (mM): K Aspartate, 130; MgCl2, 5; EGTA 5; HEPES, 10; Tris-ATP 4; pH 7.2 (KOH titration).
# [2] = test system: rat CIA model; experiment: Arthritis index (AI) of extremities in rat CIA model; details: CIA rats; for Arthritis index/Day: score 0-16;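 for all read-outs here: rats immunized with type II collagen plus complete Freund's adjuvant on day 0, boosted day 7, groups of 8, each paw graded 0-4 for swelling or redness, higher means worse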
# Description: Lewis rats (female, 10-12 weeks old) were obtained from Beijing Vital River Laboratory Animal Technology Co., Ltd. The rats were on a light and dark alternation for 12 h, and the environment was kept at a temperature of 23±2° C. and a humidity of 40-70%.
# Type II collagen solution (2 mg/mL) was prepared with 0.05 M acetic acid solution to allow to be fully dissolved, and placed overnight in the dark at 4° C. During the test, 2 mg/mL type II collagen (C II) solution and 4 mg/mL complete Freund's adjuvant (CFA) solution were mixed in equal volumes under ice bath conditions to fully emulsify. On day 0, an emulsion prepared by mixing equal volumes of C II (2 mg/mL) and CFA (4 mg/mL) was injected intracutaneously into the base of the tail of experimental rats for primary immunization, and on day 7, secondary booster immunization was performed.
# The therapeutic effect of the test compound was tested in a rat CIA model. The rats were randomly divided into groups with 8 animals in each group. All animals were immunized on day 0 and boosted on day 7.
# Foot volume was scored for the swelling of four toes at the same time, the score for each foot was 0-4, and the highest score for each rat was 16. 0—no swelling, normal appearance; 1—mild swelling or redness of the ankle joint, wrist joint or finger joint; 2—moderate swelling or redness of the ankle joint, wrist joint or finger joint; 3—severe swelling or redness of the ankle joint, wrist joint or finger joint; 4—very severe swelling or redness of the ankle joint, wrist joint or finger joint.
# T1 sequence (Q12809 whole entry): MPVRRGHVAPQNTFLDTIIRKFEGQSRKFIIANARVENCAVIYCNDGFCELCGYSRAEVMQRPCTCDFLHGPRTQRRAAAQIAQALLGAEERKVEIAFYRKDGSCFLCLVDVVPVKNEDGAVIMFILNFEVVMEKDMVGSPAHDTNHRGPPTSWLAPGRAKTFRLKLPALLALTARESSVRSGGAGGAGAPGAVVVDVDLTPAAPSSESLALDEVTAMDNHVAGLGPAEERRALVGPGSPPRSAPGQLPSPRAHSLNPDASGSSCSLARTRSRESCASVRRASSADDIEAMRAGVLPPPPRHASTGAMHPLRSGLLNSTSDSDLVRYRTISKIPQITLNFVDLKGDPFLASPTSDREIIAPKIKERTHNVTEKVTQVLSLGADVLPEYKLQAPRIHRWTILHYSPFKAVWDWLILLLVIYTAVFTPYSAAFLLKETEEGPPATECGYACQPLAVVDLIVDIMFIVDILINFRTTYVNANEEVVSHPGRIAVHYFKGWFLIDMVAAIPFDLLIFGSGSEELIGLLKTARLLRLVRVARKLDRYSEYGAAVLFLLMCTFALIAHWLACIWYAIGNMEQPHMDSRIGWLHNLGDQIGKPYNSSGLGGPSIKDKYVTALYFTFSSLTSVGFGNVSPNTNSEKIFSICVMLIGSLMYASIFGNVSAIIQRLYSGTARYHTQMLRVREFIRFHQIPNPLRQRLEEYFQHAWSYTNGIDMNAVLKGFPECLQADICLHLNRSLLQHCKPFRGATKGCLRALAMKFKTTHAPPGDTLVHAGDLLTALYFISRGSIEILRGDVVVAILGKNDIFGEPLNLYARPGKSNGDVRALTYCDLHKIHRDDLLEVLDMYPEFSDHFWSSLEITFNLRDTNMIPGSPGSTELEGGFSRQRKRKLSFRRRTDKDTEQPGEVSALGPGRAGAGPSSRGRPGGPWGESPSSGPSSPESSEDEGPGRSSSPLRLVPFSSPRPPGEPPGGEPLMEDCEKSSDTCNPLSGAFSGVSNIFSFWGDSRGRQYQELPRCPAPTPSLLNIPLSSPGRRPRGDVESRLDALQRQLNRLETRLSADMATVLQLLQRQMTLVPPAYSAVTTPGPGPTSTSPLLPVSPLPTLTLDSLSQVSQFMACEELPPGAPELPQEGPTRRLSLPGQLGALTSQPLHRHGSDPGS
compound,measurement,setting,value
"O=C(Nc1cn2c(-c3ccc(CN4CCS(=O)(=O)CC4)s3)cccc2n1)[C@H]1C[C@@H]1F (relative stereo) [EXP-3, trans-N-[5-[5-[(1,1-dioxo-1,4-thiazin-4-yl)methyl]-2-thiophene]imidazo[1,2-a]pyridin-2-yl]-2-fluoro-cyclopropylcarboxamide]",IC50,[1],> 10 µM
same,Arthritis index/Day,"[2]; 2 mg/kg oral gavage once daily for 2 w, day 0",0 ± 0
same,Arthritis index/Day,"[2]; 2 mg/kg oral gavage once daily for 2 w, day 8",0 ± 0
same,Arthritis index/Day,"[2]; 2 mg/kg oral gavage once daily for 2 w, day 11",0.50 ± 0.33
same,Arthritis index/Day,"[2]; 2 mg/kg oral gavage once daily for 2 w, day 14",3.63 ± 0.91
same,Arthritis index/Day,"[2]; 2 mg/kg oral gavage once daily for 2 w, day 17",6.25 ± 1.36
same,Arthritis index/Day,"[2]; 2 mg/kg oral gavage once daily for 2 w, day 21",9.00 ± 1.24
same,Arthritis index/Day,"[2]; 2 mg/kg oral gavage once daily for 2 w, day 24",9.13 ± 1.04
same,Arthritis index/Day,"[2]; 2 mg/kg oral gavage once daily for 2 w, day 28",8.63 ± 0.63
same,Arthritis index/Day,"[2]; 3 mg/kg oral gavage once daily for 2 w, day 0",0 ± 0
same,Arthritis index/Day,"[2]; 3 mg/kg oral gavage once daily for 2 w, day 8",0 ± 0
same,Arthritis index/Day,"[2]; 3 mg/kg oral gavage once daily for 2 w, day 11",0.38 ± 0.18
same,Arthritis index/Day,"[2]; 3 mg/kg oral gavage once daily for 2 w, day 14",3.75 ± 0.70
same,Arthritis index/Day,"[2]; 3 mg/kg oral gavage once daily for 2 w, day 17",6.25 ± 0.75
same,Arthritis index/Day,"[2]; 3 mg/kg oral gavage once daily for 2 w, day 21",10.25 ± 0.70
same,Arthritis index/Day,"[2]; 3 mg/kg oral gavage once daily for 2 w, day 24",10.88 ± 0.44
same,Arthritis index/Day,"[2]; 3 mg/kg oral gavage once daily for 2 w, day 28",9.25 ± 0.45
same,Arthritis index/Day,"[2]; 5 mg/kg oral gavage once daily for 2 w, day 0",0 ± 0
same,Arthritis index/Day,"[2]; 5 mg/kg oral gavage once daily for 2 w, day 8",0 ± 0
same,Arthritis index/Day,"[2]; 5 mg/kg oral gavage once daily for 2 w, day 11",0.63 ± 0.26
same,Arthritis index/Day,"[2]; 5 mg/kg oral gavage once daily for 2 w, day 14",3.50 ± 0.76
same,Arthritis index/Day,"[2]; 5 mg/kg oral gavage once daily for 2 w, day 17",5.88 ± 1.22
same,Arthritis index/Day,"[2]; 5 mg/kg oral gavage once daily for 2 w, day 21",9.00 ± 1.22
same,Arthritis index/Day,"[2]; 5 mg/kg oral gavage once daily for 2 w, day 24",9.13 ± 1.04
same,Arthritis index/Day,"[2]; 5 mg/kg oral gavage once daily for 2 w, day 28",8.00 ± 0.65
same,"arthritis index, relative effect on swelling of the extremities in words",[2]; 10 mg/kg,strongest effect on reducing swelling of the extremities
same,Arthritis index/Day,"[2]; 10 mg/kg oral gavage once daily for 2 w, day 0",0 ± 0
same,Arthritis index/Day,"[2]; 10 mg/kg oral gavage once daily for 2 w, day 8",0 ± 0
same,Arthritis index/Day,"[2]; 10 mg/kg oral gavage once daily for 2 w, day 11",0.38 ± 0.38
same,Arthritis index/Day,"[2]; 10 mg/kg oral gavage once daily for 2 w, day 14",3.75 ± 0.70
same,Arthritis index/Day,"[2]; 10 mg/kg oral gavage once daily for 2 w, day 17",5.00 ± 0.89
same,Arthritis index/Day,"[2]; 10 mg/kg oral gavage once daily for 2 w, day 21",6.50 ± 0.50
same,Arthritis index/Day,"[2]; 10 mg/kg oral gavage once daily for 2 w, day 24",7.25 ± 0.56
same,Arthritis index/Day,"[2]; 10 mg/kg oral gavage once daily for 2 w, day 28",7.25 ± 0.41
